From article PMC12058161, “The plant matrix of Artemisia annua L. for the treatment of malaria: Pharmacodynamic and pharmacokinetic studies” (PLOS One, 2025)
Where “and” joins values, the source holds several entries; their conditions need not be identical. Equal entries are not always repeated.

Assays:
Caco-2 cells = assay: Cytotoxicity in Caco-2 cells, CCK-8 assay; type: cell-based, human; conditions: for Cell survival rate%: mean; for cck-8 mean (survival fraction): mean of 6
Method: Caco-2 cells were cultured in 96-well plates for 48 h at a seeding density of 5.0 × 10^3 cells/well before the addition of drugs. […] The final concentration of DMSO was 0.05% (v/v). Experiments were initiated by replacing the culture medium in each well with 100 μL of sample solutions at 37°C in the CO2 incubator. After 48 h of incubation, the medium was removed and 10 μL of CCK-8 reagent in the serum-free medium was added to each well. The plates were then incubated at 37°C for another 2 h. At the end of the incubation period, the plates were quantified by reading the absorbance at 450 nm on a micro-plate multi-detection instrument, SpectraMax iD3 with SoftMax® Pro (Molecular Devices Corporation Sunnyvale, CA, USA). The percentage of cell viability was calculated based on the absorbance measured relative to the absorbance of cells exposed to the negative control.

[1] = Stability of the five compounds in SD rat plasma (QC samples, UHPLC-ESI-MS/MS); type: in vitro ADME; conditions: for 3 freeze-thaw cycles mean ± SD / 7 days at -80°C mean ± SD / Room temperature 24h mean ± SD: SD rat plasma QC sample; for stability, Accuracy (measured versus nominal concentration) / stability, mean ± SD (measured concentration): SD rat plasma, n=5
[2] = male, Sprague Dawley, rat, in vivo, po, 352 mg/kg
Method: (§1) Blood samples were centrifuged at 3500 rpm for 5 min at 4°C. All plasma samples were then stored at -80°C until analysis.
(§2) All samples were stored in a refrigerator at -80°C and thawed at room temperature before processing. A 50 μL aliquot of plasma was added with 5 μL of the standard solution (or acetonitrile) and 100 μL of internal standard solution in turn, vortexed and mixed, then sonicated for 3 min, centrifuged at 14000 rpm for 10 min at low temperature. The supernatant was transferred to an autosampler vial and analyzed by UHPLC-ESI-MS/MS.
(§3) The mobile phase consisted of 0.1% formic acid solution (A) and acetonitrile (B).
(§4) The ESI ionization source was used and detected in MRM mode.
(§5) All data were presented as mean ± SD. Pharmacokinetic parameters including half-life (t1/2), maximum plasma time (Tmax) and concentration (Cmax), area under concentration-time curve (AUC0-t and AUC0-∞), clearance (CL), steady-state volume of distribution (Vz), and mean residence time (MRT) were analyzed by non-compartmental method using DAS Version 2.0 (Chinese Pharmacological Society, Beijing, China). […] The data were analyzed by Student’s t-test for two groups and one-way analysis of variance for multiple groups; p < 0.05 was considered statistically significant.

in vivo = conditions: male, Sprague Dawley, rat, po, 352 mg/kg
Method: as §1, §2, §3, §4, §5

[3] = Caco-2, concentration 10 μmol/L
[4] = Caco-2, concentration 20 μmol/L
[5] = Caco-2, concentration 40 μmol/L
[6] = Caco-2, concentration 80 μmol/L
[7] = nominal 20 ng/mL, 3 freeze-thaw cycles
[8] = nominal 20 ng/mL, 7 days at -80°C
[9] = nominal 1000 ng/mL, 3 freeze-thaw cycles
[10] = nominal 1000 ng/mL, 7 days at -80°C
[11] = nominal 5000 ng/mL, 3 freeze-thaw cycles
[12] = nominal 5000 ng/mL, 7 days at -80°C
[13] = nominal 20 ng/mL, Room temperature 24h
[14] = nominal 1000 ng/mL, Room temperature 24h
[15] = nominal 5000 ng/mL, Room temperature 24h

C[C@@H]1CC[C@H]2[C@@H](C)C(=O)O[C@@H]3O[C@@]4(C)CC[C@@H]1[C@]32O4 [DEART, Deoxyartemisinin]
Cell survival rate%, single replicate (Caco-2 cells; Caco-2, 5μmol/L): 87.61% and 87.6% and 80.17% and 81.51% and 81.61% and 87.86%
Cell survival rate%, single replicate (Caco-2 cells; Caco-2, 10μmol/L): 81.2% and 82.86% and 82.71% and 83.82% and 87.89% and 87.9%
Cell survival rate%, single replicate (Caco-2 cells; Caco-2, 20μmol/L): 86.78% and 81.42% and 81.32% and 82.7% and 86.07% and 80.23%
Cell survival rate%, single replicate (Caco-2 cells; Caco-2, 40μmol/L): 83.23% and 82.76% and 82.72% and 82.4% and 81.01% (2×)
Cell survival rate%, single replicate (Caco-2 cells; Caco-2, 80μmol/L): 79.21% and 80.38% and 82.01% and 81.79% and 85.15% and 82.39%
cck-8 cell survival as fraction, single replicate (Caco-2 cells; Caco-2, concentration 5 μmol/L): 0.8761 and 0.876 and 0.8017 and 0.8151 and 0.8161 and 0.8786
Cell survival rate% (Caco-2 cells; Caco-2, concentration 5 μmol/L): 84.39%
cck-8 mean (survival fraction) (Caco-2 cells; Caco-2, concentration 5 μmol/L): 0.84
cck-8 cell survival as fraction, single replicate (Caco-2 cells; [3]): 0.812 and 0.8286 and 0.8271 and 0.8382 and 0.8789 and 0.879
Cell survival rate% (Caco-2 cells; [3]): 84.40%
cck-8 mean (survival fraction) (Caco-2 cells; [3]): 0.84
cck-8 cell survival as fraction, single replicate (Caco-2 cells; [4]): 0.8678 and 0.8142 and 0.8132 and 0.827 and 0.8607 and 0.8023
Cell survival rate% (Caco-2 cells; [4]): 83.09%
cck-8 mean (survival fraction) (Caco-2 cells; [4]): 0.83
cck-8 cell survival as fraction, single replicate (Caco-2 cells; [5]): 0.8323 and 0.8276 and 0.8272 and 0.824 and 0.8101
Cell survival rate% (Caco-2 cells; [5]): 82.19%
cck-8 mean (survival fraction) (Caco-2 cells; [5]): 0.82
cck-8 cell survival as fraction, single replicate (Caco-2 cells; [6]): 0.7921 and 0.8038 and 0.8201 and 0.8179 and 0.8515 and 0.8239
Cell survival rate% (Caco-2 cells; [6]): 81.82%
cck-8 mean (survival fraction) (Caco-2 cells; [6]): 0.82
Stability in plasma, measured concentration (mean ± SD) ([1]; 3 freeze-thaw cycles, QC concentration 20 ng/mL): 21.4 ± 1.03 ng/mL
Stability in plasma, measured concentration (mean ± SD) ([1]; 3 freeze-thaw cycles, QC concentration 1000 ng/mL): 1069 ± 21.8 ng/mL
Stability in plasma, measured concentration (mean ± SD) ([1]; 3 freeze-thaw cycles, QC concentration 5000 ng/mL): 4765 ± 110 ng/mL
Stability in plasma, measured concentration (mean ± SD) ([1]; 7 days at -80°C, QC concentration 20 ng/mL): 21.1 ± 1.73 ng/mL
Stability in plasma, measured concentration (mean ± SD) ([1]; 7 days at -80°C, QC concentration 1000 ng/mL): 1069 ± 21.6 ng/mL
Stability in plasma, measured concentration (mean ± SD) ([1]; 7 days at -80°C, QC concentration 5000 ng/mL): 4705 ± 267 ng/mL
Stability, measured concentration, mean ± SD ([1]; QC sample 20 ng/mL, 3 freeze-thaw cycles): 21.4 ± 1.03 ng/mL
Stability, measured concentration, mean ± SD ([1]; QC sample 20 ng/mL, 7 days at -80°C): 21.1 ± 1.73 ng/mL
Stability, measured concentration, mean ± SD ([1]; QC sample 20 ng/mL, Room temperature 24h): 21.6 ± 0.78 ng/mL
Stability, measured concentration, mean ± SD ([1]; QC sample 1000 ng/mL, 3 freeze-thaw cycles): 1069 ± 21.8 ng/mL
Stability, measured concentration, mean ± SD ([1]; QC sample 1000 ng/mL, 7 days at -80°C): 1069 ± 21.6 ng/mL
Stability, measured concentration, mean ± SD ([1]; QC sample 1000 ng/mL, Room temperature 24h): 1093 ± 39.5 ng/mL
Stability, measured concentration, mean ± SD ([1]; QC sample 5000 ng/mL, 3 freeze-thaw cycles): 4765 ± 110 ng/mL
Stability, measured concentration, mean ± SD ([1]; QC sample 5000 ng/mL, 7 days at -80°C): 4705 ± 267 ng/mL
Stability, measured concentration, mean ± SD ([1]; QC sample 5000 ng/mL, Room temperature 24h): 5205 ± 494 ng/mL
Stability in plasma, measured concentration (mean ± SD) ([1]; Room temperature 24h, QC concentration 20 ng/mL): 21.6 ± 0.78 ng/mL
Stability in plasma, measured concentration (mean ± SD) ([1]; Room temperature 24h, QC concentration 1000 ng/mL): 1093 ± 39.5 ng/mL
Stability in plasma, measured concentration (mean ± SD) ([1]; Room temperature 24h, QC concentration 5000 ng/mL): 5205 ± 494 ng/mL
3 freeze-thaw cycles mean ± SD [1, 7]: 21.4 ± 1.03 ng/mL and 21.3622 ng/mL
7 days at -80°C mean ± SD [1, 8]: 21.1 ± 1.73 ng/mL and 21.1491 ng/mL
Room temperature 24h mean ± SD ([1]; nominal 20 ng/mL): 21.6 ± 0.78 ng/mL and 21.6437 ng/mL
3 freeze-thaw cycles mean ± SD [1, 9]: 1069 ± 21.8 ng/mL and 1069.41 ng/mL
7 days at -80°C mean ± SD [1, 10]: 1069 ± 21.6 ng/mL and 1068.61 ng/mL
Room temperature 24h mean ± SD ([1]; nominal 1000 ng/mL): 1093 ng/mL and 1093 ± 39.5 ng/mL
3 freeze-thaw cycles mean ± SD [1, 11]: 4765 ± 110 ng/mL and 4765.19 ng/mL
7 days at -80°C mean ± SD [1, 12]: 4705 ± 267 ng/mL and 4704.92 ng/mL
Room temperature 24h mean ± SD ([1]; nominal 5000 ng/mL): 5205.17 ng/mL and 5205 ± 494 ng/mL
stability, Accuracy (measured versus nominal concentration) [1, 7]: 106.81%
stability, mean ± SD (measured concentration) [1, 7]: 21.4 ± 1.03 ng/mL
stability, Accuracy (measured versus nominal concentration) [1, 8]: 105.75%
stability, mean ± SD (measured concentration) [1, 8]: 21.1 ± 1.73 ng/mL
stability, Accuracy (measured versus nominal concentration) [1, 13]: 108.22%
stability, mean ± SD (measured concentration) [1, 13]: 21.6 ± 0.78 ng/mL
stability, Accuracy (measured versus nominal concentration) [1, 9]: 106.94%
stability, mean ± SD (measured concentration) [1, 9]: 1069 ± 21.8 ng/mL
stability, Accuracy (measured versus nominal concentration) [1, 10]: 106.86%
stability, mean ± SD (measured concentration) [1, 10]: 1069 ± 21.6 ng/mL
stability, Accuracy (measured versus nominal concentration) [1, 14]: 109.30%
stability, mean ± SD (measured concentration) [1, 14]: 1093 ± 39.5 ng/mL
stability, Accuracy (measured versus nominal concentration) [1, 11]: 95.30%
stability, mean ± SD (measured concentration) [1, 11]: 4765 ± 110 ng/mL
stability, Accuracy (measured versus nominal concentration) [1, 12]: 94.10%
stability, mean ± SD (measured concentration) [1, 12]: 4705 ± 267 ng/mL
stability, Accuracy (measured versus nominal concentration) [1, 15]: 104.10%
stability, mean ± SD (measured concentration) [1, 15]: 5205 ± 494 ng/mL
CL [2]: 0.024 ± 0.003 L/h
Vz [2]: 0.135 ± 0.049 L
AUC(0-inf) (in vivo): 848 ± 111 ng·h/mL
AUC(0-t) (in vivo): 750 ± 114 ng·h/mL
Cmax (in vivo; Cmax): 143 ± 37.3 ng/mL
MRT last (in vivo; MRT(0-t)): 4.04 ± 0.427 h
MRT inf (in vivo; MRT(0-∞)): 6.12 ± 1.34 h
half-life (in vivo; t1/2): 3.94 ± 1.57 h
